Structures can show the parent of a compound that is named as a salt.

Here are results for 1 compound from patent US12501864B2 (priority 2020, dated 2025).

The conditions of this data set: in vivo.

As for `O=C1OC2(c3ccc(O)cc3Oc3cc(O)ccc32)c2ccccc21` [Fluorescein, fluorescein disodium salt], the “distribution by infection level” value is recorded as “greater in trees with lower infection levels compared to trees with high infection levels”; the “distribution in fruits vs leaves” value is on record as “higher in olive fruits than leaves”; the “distribution throughout the tree” value is “distributed evenly throughout the tree horizontally and vertically to all the sectors measured”.
